Experimental data: US11339448B2, “Treatment of acute myeloid leukemia” (Ottawa Hospital Research Institute, priority 2018, dated 2022)

Assays:
Assay type in all cases: cell-based, human
[1] = tested on: MTF2 shRNA knockdown (SH3 or SH7) HSPCs; experiment: Cell cycle (DRAQ5) and PCNA proliferation analysis in HSPCs; details: for fraction of viable MTF2-deficient cells that were PCNA+: MTF2-deficient HSPCs, 48 hours post-treatment; for overall PCNA levels (proliferation): MTF2 deficient (SH3 or SH7) HSPCs, 1 μM, 24 hours post-treatment; for population distribution within the cell cycle stages: scramble or MTF2 knockdown HSPCs, 1 μM for 24 hours
Experimental: (§1) Cells were sorted using cell surface markers, then fixed in 4% PFA, permeabilized with 0.3% Triton and stained for MTF2 (Genway, clone M96), EZH2 (Millipore, clone AC22), SUZ12 (Millipore, clone 2AO9), H3K27me3 (Cell Signaling, clone C36B11), PCNA (Santa Cruz, clone C10), p53 (Cell Signaling, clone 1C12), or MDM2 (Santa Cruz, clone C18) and appropriate secondary antibodies. Protein expression was determined by flow cytometry compared with an isotype-only control and ran on the LSRFortessa™ Cell Analyzer (BD Biosciences). Data analysis was performed using FlowJo v10.2 to compare mean fluorescent intensity values.
(§2) For cell cycle analysis, cells were fixed and stained with DRAQ5 (BD Biosciences) to assess cell cycle state. For assessing p53 signaling and MTF2 rescue experiments, cells were stained with antibodies against p53, MDM2 or H3K27me3 as above and with DRAQ5 for nucleic acid detection. Cells were analyzed using the ImageStream imaging flow cytometer (Amnis). The nuclear contents of each protein were determined using the preset wizard tool “Nuclear Localization”, within the Amnis IDEAS analysis software.
(§3) Lin^−CD34^+ cells isolated from either umbilical cord blood or primary AML patient bone marrow aspirates were transduced as above, sorted for GFP^+ and cultured in 96-well plates at 100,000 cells/100 uL/well in duplicates. The drugs Daunorubicin, Cytarabine, Nutlin3a and M1773 were dissolved in DMSO. Cytarabine and Daunorubicin were added at concentrations of 1 μM and 0.5 μM, respectively. After 1 hour of incubation with Daunorubicin, cells were collected and transferred into fresh media to remove Daunorubicin from the media. The MDM2 pathway inhibitors, Nutlin3a and M1773 were added at concentrations of 1 μM.

[2] = tested on: MTF2 deficient refractory AML cells [MD-AML]; experiment: Cell viability / apoptosis assay (Annexin V/7-AAD) in primary AML patient cells; details: for viability of CD34+CD38− cells from MD-AML patients: 0.5 μM Daunorubicin or 1 μM Cytarabine, over 48 hours; for apoptosis: MD-AML cells, in combination with Cytarabine or Daunorubicin; for sensitivity to Cytarabine / sensitivity to Daunorubicin: MD-AML, comparable to B-AML; for sensitivity to Cytarabine: combination with Cytarabine; for sensitivity to Daunorubicin: combination with Daunorubicin; for apoptosis / apoptotic effect, MDM2 inhibitor alone: treatment alone, over the course of 48 hours
Experimental: Lin^−CD34^+ primary AML bone marrow cells were maintained in IMDM media containing SCF (100 ng/mL), FLT3 (50 ng/mL), IL-3 (20 ng/mL), G-CSF (20 ng/mL) and 10^−4M Beta-mercaptoethanol^21. Growth factors were purchased from Peprotech. On Day 1 of infection, cells were incubated with polybrene (6 mg/ml) for 2 hours at 37° C., then combined with viral supernatants containing either a GFP-tagged MTF2 overexpression vector clone or an empty vector control at a MOI of 30.
(§4) Apoptosis was assessed in sorted cells by the dual staining of AnnexinV and 7-AAD (eBiosciences). Flow cytometric analyses of treated samples were performed consistently, using the same gating strategy throughout. Viable cells were categorized as being AnnexinV and 7-AAD negative, late apoptotic/dead cells were categorized as being AnnexinV and 7-AAD positive.
as §3

Lin−CD34+ HSPCs [3] = experiment: Alkaline comet assay (DNA damage accumulation, Olive moment); details: for DNA damage accumulation (Olive moment): scramble vs MTF2 shRNA transduced HSPCs, over a 48-hour period; for DNA damage accumulation: MTF2-deficient HSPCs, in combination with Cytarabine or Daunorubicin
Experimental: Alkaline comet assays were performed using GelBond Films and buffers were prepared as described^22. Slides were stained with SYBR Gold and imaged using Zeiss Axio2 Imaging inverted microscope equipped with a 5× Plan-NEOFLUAR 0.3NA objective and an AxioCam MRm camera through a FITC-compatible filter. At least 10 random fields containing a minimum of 20 non-overlapping comets in each group total were photographed. Blinded imaging acquisition and analysis was performed using ImageJ software (NIH) and the OpenComet comet assay plugin calculating Olive moment (arbitrary units) on the basis of comet head and tail sizes (measured in pixels) and their integral intensity. The magnitude of these parameters depends on time of electrophoresis, staining brightness and image magnification, which were constant within each assay and between experiments. Comet assays were independently repeated using HSPCs isolated from 3 different UCB samples. Statistical significance was determined by two-way ANOVA using GraphPad Prism software version 6.
as §3

Lin−CD34+ HSPCs [4] = experiment: Cell viability / apoptosis assay (Annexin V/7-AAD) in shRNA-transduced HSPCs; details: for sensitivity to induction therapy drugs (cell viability): MTF2-deficient HSPCs, in combination with Cytarabine or Daunorubicin
Experimental: HSPCs (Lin^−CD34^+) were maintained in IMDM media containing bovine serum albumin, insulin, and transferrin (Stem Cell Technologies), 1% PenStrep (ThermoFisher), SCF (100 ng/mL), TPO (50 ng/mL), FLT3 (100 ng/mL), 1% Glutamax (InVitrogen), and LDL (1 μg/ml) (Calbiochem). Growth factors were purchased from Peprotech. On Day 1 of infection, cells were incubated with polybrene (Sigma) (6 mg/ml) for 2 hours at 37° C., then combined with viral supernatants containing either a GFP-tagged MTF2 shRNA clone or a scrambled shRNA control (ThermoFisher) at a MOI of 100. Cells were centrifuged at 400 g for 20 minutes, then maintained at 37° C. On Day 2, the infection was repeated. Cells were grown for 3 days using a fed-batch culture system^21, then sorted for high GFP-expression and viability by negative selection of Propidium Iodide using the Beckman Coulter MoFlo sorter.
as §4, §3

MDM2 and p53 levels = experiment: Imaging flow cytometry of MDM2 and p53 levels in MTF2 knockdown HSPCs; details: for MDM2 and p53 levels within the nucleus: MTF2 knockdown (SH3) HSPCs, 1 μM
Experimental: as §1, §2, §3

[5] = tested on: p53 levels in Lin−CD34+ leukemic cells (MD-AML); experiment: Imaging flow cytometry of p53 levels in refractory patient leukemic cells; details: Lin−CD34+ leukemic cells from refractory patient BM aspirates (MD-AML)
Experimental: as §1, §2
Lin^−CD34^+ cells isolated from either umbilical cord blood or primary AML patient bone marrow aspirates were transduced as above, sorted for GFP^+ and cultured in 96-well plates at 100,000 cells/100 uL/well in duplicates. […]

[6] = MTF2 knockdown (SH7) HSPCs, 1 uM

COc1cccc2c1C(=O)c1c(O)c3c(c(O)c1C2=O)C[C@@](O)(C(C)=O)C[C@@H]3O[C@H]1C[C@H](N)[C@H](O)[C@H](C)O1 [Daunorubicin]
fraction of viable MTF2-deficient cells that were PCNA+ [1]: two-thirds
viability of CD34+CD38− cells from MD-AML patients [2]: remain viable over 48 hours
DNA damage accumulation (Olive moment) (Lin−CD34+ HSPCs [3]): highest levels of DNA damage were found in the scramble control HSPCs

COc1ccc(C2=N[C@@H](c3ccc(Cl)cc3)[C@@H](c3ccc(Cl)cc3)N2C(=O)N2CCNC(=O)C2)c(OC(C)C)c1 [Nutlin3A, 4-[(4S,5R)-4,5-bis(4-chlorophenyl)-2-(4-methoxy-2-propan-2-yloxyphenyl)-4,5-dihydroimidazole-1-carbonyl]piperazin-2-one]
overall PCNA levels (proliferation) [1]: decrease in overall PCNA levels
population distribution within the cell cycle stages [1]: arresting in G0/G1
sensitivity to induction therapy drugs (cell viability) (Lin−CD34+ HSPCs [4]): sensitized to induction therapy drugs
p53 levels (MDM2 and p53 levels; MTF2-deficient HSPCs): rescued
MDM2 and p53 levels within the nucleus (MDM2 and p53 levels): reestablished MDM2 and p53 levels to those observed in the scramble untreated control
MDM2 levels (MDM2 and p53 levels; [6]): low
p53 levels (MDM2 and p53 levels; [6]): restored
p53 levels [5]: rescued
apoptosis [2]: underwent apoptosis
sensitivity to Cytarabine ([2]; 48 hours): increased sensitivity
sensitivity to Cytarabine ([2]; within 24 hours): increased sensitivity
sensitivity to Daunorubicin ([2]; 48 hours): increased sensitivity
sensitivity to Daunorubicin ([2]; within 24 hours): increased sensitivity
apoptosis / apoptotic effect, MDM2 inhibitor alone ([2]; listed as Nutlin3a): very low apoptotic effect
DNA damage accumulation (Lin−CD34+ HSPCs [3]): same amount of DNA damage accumulation as that found within scramble controls

CC(C)(C)C[C@H]1N[C@@H](C(=O)NC2CCC(O)CC2)[C@H](c2cccc(Cl)c2F)[C@@]12C(=O)Nc1cc(Cl)ccc12 (stereo partly drawn) [MI-773, (2′R,3S,3′S,5′R)-6-chloro-3′-(3-chloro-2-fluorophenyl)-5′-(2,2-dimethylpropyl)-N-(4-hydroxycyclohexyl)-2-oxospiro[1H-indole-3,4′-pyrrolidine]-2′-carboxamide]
overall PCNA levels (proliferation) [1]: decrease in overall PCNA levels
population distribution within the cell cycle stages [1]: arresting in G0/G1
sensitivity to induction therapy drugs (cell viability) (Lin−CD34+ HSPCs [4]): sensitized to induction therapy drugs
p53 levels (MDM2 and p53 levels; MTF2-deficient HSPCs): rescued
MDM2 and p53 levels within the nucleus (MDM2 and p53 levels): reestablished MDM2 and p53 levels to those observed in the scramble untreated control
MDM2 levels (MDM2 and p53 levels; [6]): low
p53 levels (MDM2 and p53 levels; [6]): restored
p53 levels [5]: rescued
apoptosis [2]: underwent apoptosis
sensitivity to Cytarabine ([2]; 48 hours): increased sensitivity
sensitivity to Cytarabine ([2]; within 24 hours): increased sensitivity
sensitivity to Daunorubicin ([2]; 48 hours): increased sensitivity
sensitivity to Daunorubicin ([2]; within 24 hours): increased sensitivity
apoptosis / apoptotic effect, MDM2 inhibitor alone [2]: very low apoptotic effect
DNA damage accumulation (Lin−CD34+ HSPCs [3]): same amount of DNA damage accumulation as that found within scramble controls

Nc1ccn([C@@H]2O[C@H](CO)[C@@H](O)[C@@H]2O)c(=O)n1 [Cytarabine]
fraction of viable MTF2-deficient cells that were PCNA+ [1]: two-thirds
viability at 1 µM (Lin−CD34+ HSPCs [4]; Homo sapiens, MTF2 shRNA knockdown HSPCs, 48 hours after treatment (Daunorubicin 0.5 μM or Cytarabine 1 μM), read-out: MTF2-deficient cells viable): > 60%
viability of CD34+CD38− cells from MD-AML patients [2]: remain viable over 48 hours
DNA damage accumulation (Olive moment) (Lin−CD34+ HSPCs [3]): highest levels of DNA damage were found in the scramble control HSPCs
